Assay results reported in patent US20050090396A1, “Herbicides based on substituted carboxylic acid anilides” (priority 2001, published 2005).

Experiments:
[1] = tested on: Hordeum vulgare (winter barley); assay: Post-emergence test/greenhouse, damage to winter barley (HORVW); format: in vivo
Method: (§1) Post-Emergence Test/Greenhouse
Test plants are grown under controlled conditions (temperature and light).
(§2) Following the spray application, the plant containers are kept in the greenhouse under constant light and temperature conditions.
(§3) After five days (5d) and/or three weeks (21d), the degree of damage to the plants is rated in % damage in comparison to the development of the untreated control.

[2] = tested on: Triticum aestivum (winter wheat); assay: Post-emergence test/greenhouse, damage to winter wheat (TRZAW); format: in vivo
Method: as §1
Test plants are grown under controlled conditions (temperature and light). Once the plants have reached a height of 5 to 15 cm, the test compound or the combination of test compounds is applied by spraying such that the particular amounts of active compound desired are applied per unit area. The concentration of the spray liquor is chosen so that the particular amounts of active compound desired are applied in 500 litres of water/ha.
as §2, §3
• 0%=no effect (like untreated control) • 100%=total destruction.
Unless indicated otherwise, the tests were carried out in the presence of 0.5% Renex 36. • a.i. denotes “active ingredient” (active compound). • HORVW denotes Hordeum vulgare (winter barley).
TRZAW denotes Triticum aestivum (winter wheat).

[3] = 50 g of ai/ha, without addition of Renex 36

Compound: CCS(=O)(=O)N(C(=O)COc1ccc(Cl)cc1Cl)c1cc(-n2c(=O)cc(C(F)(F)F)n(C)c2=O)c(F)cc1C#N [Ex. I-1]
- degree of damage to the plants, HORVW 21d ([1]; 30 g of ai/ha, 0.5% Renex 36): 20%
- degree of damage to the plants, HORVW 21d ([1]; 60 g of ai/ha, 0.5% Renex 36): 40%

Compound: CCS(=O)(=O)N(C(=O)CCc1ccc(Cl)c(Cl)c1)c1cc(-n2c(=O)cc(C(F)(F)F)n(C)c2=O)c(F)cc1C#N [Ex. I-2]
- degree of damage to the plants, HORVW 5d ([1]; 30 g of ai/ha, 0.5% Renex 36): 40%
- degree of damage to the plants, HORVW 5d ([1]; 60 g of ai/ha, 0.5% Renex 36): 60%

Compound: CCS(=O)(=O)N(C(=O)CCc1ccc(Cl)c(Cl)c1)c1cc(-n2ncc(=O)n(C)c2=O)c(F)cc1C#N [Ex. I-14]
- degree of damage to the plants, TRZAW 5d ([2]; 60 g of ai/ha, 0.5% Renex 36): 20%
- degree of damage to the plants, HORVW 5d ([1]; 60 g of ai/ha, 0.5% Renex 36): 30%

Compound: CCS(=O)(=O)N(C(=O)CCc1cccc(OC)c1)c1cc(-n2c(=O)cc(C(F)(F)F)n(C)c2=O)c(F)cc1C#N [Ex. I-24]
- degree of damage to the plants, HORVW 5d ([1]; 15 g of ai/ha, 0.5% Renex 36): 40%
- degree of damage to the plants, HORVW 5d ([1]; 30 g of ai/ha, 0.5% Renex 36): 60%
- degree of damage to the plants, HORVW 5d ([1]; 60 g of ai/ha, 0.5% Renex 36): 70%

Compound: Cn1c(C(F)(F)F)cc(=O)n(-c2cc(N(C(=O)CCc3ccc(F)c(F)c3)S(C)(=O)=O)c(C#N)cc2F)c1=O [Ex. I-26]
- degree of damage to the plants, TRZAW 21d ([2]; 30 g of ai/ha, 0.5% Renex 36): 20%
- degree of damage to the plants, TRZAW 21d ([2]; 60 g of ai/ha, 0.5% Renex 36): 30%
- degree of damage to the plants, HORVW 21d ([1]; 15 g of ai/ha, 0.5% Renex 36): 10%
- degree of damage to the plants, HORVW 21d ([1]; 30 g of ai/ha, 0.5% Renex 36): 20%
- degree of damage to the plants, HORVW 21d ([1]; 60 g of ai/ha, 0.5% Renex 36): 40%

Compound: CCS(=O)(=O)N(C(=O)C(C)=Cc1ccccc1)c1cc(-n2c(=O)cc(C(F)(F)F)n(C)c2=O)c(F)cc1C#N [Ex. I-29]
- degree of damage to the plants, HORVW 5d ([1]; 15 g of ai/ha, 0.5% Renex 36): 10%

Compound: CCS(=O)(=O)N(C(=O)C=Cc1ccccc1Cl)c1cc(-n2c(=O)cc(C(F)(F)F)n(C)c2=O)c(F)cc1C#N [Ex. I-31]
- degree of damage to the plants, TRZAW 5d ([2]; 30 g of ai/ha, 0.5% Renex 36): 20%
- degree of damage to the plants, TRZAW 5d ([2]; 60 g of ai/ha, 0.5% Renex 36): 20%
- degree of damage to the plants, HORVW 5d ([1]; 15 g of ai/ha, 0.5% Renex 36): 30%
- degree of damage to the plants, HORVW 5d ([1]; 30 g of ai/ha, 0.5% Renex 36): 40%
- degree of damage to the plants, HORVW 5d ([1]; 60 g of ai/ha, 0.5% Renex 36): 50%

Compound: Cn1c(C(F)(F)F)cc(=O)n(-c2cc(N(C(=O)C=Cc3ccccc3Cl)S(C)(=O)=O)c(C#N)cc2F)c1=O [Ex. I-32]
- degree of damage to the plants, HORVW 5d ([1]; 30 g of ai/ha, 0.5% Renex 36): 25%
- degree of damage to the plants, HORVW 5d ([1]; 60 g of ai/ha, 0.5% Renex 36): 40%

Compound: CCS(=O)(=O)N(C(=O)CCc1cccc(Cl)c1)c1cc(-n2c(=O)cc(C(F)(F)F)n(C)c2=O)c(F)cc1C#N [Ex. I-33]
- degree of damage to the plants, TRZAW 5d ([2]; 60 g of ai/ha, 0.5% Renex 36): 25%
- degree of damage to the plants, TRZAW 21d ([2]; 30 g of ai/ha, 0.5% Renex 36): 10%
- degree of damage to the plants, TRZAW 21d ([2]; 60 g of ai/ha, 0.5% Renex 36): 15%
- degree of damage to the plants, HORVW 5d ([1]; 60 g of ai/ha, 0.5% Renex 36): 40%
- degree of damage to the plants, HORVW 21d ([1]; 30 g of ai/ha, 0.5% Renex 36): 15%
- degree of damage to the plants, HORVW 21d ([1]; 60 g of ai/ha, 0.5% Renex 36): 20%

Compound: CCS(=O)(=O)N(C(=O)CC(C)c1ccccc1)c1cc(-n2ncc(=O)n(C)c2=O)c(F)cc1C#N (stereo not shown) [Ex. I-40]
- degree of damage to the plants, TRZAW 5d ([2]; 60 g of ai/ha, 0.5% Renex 36): 20%
- degree of damage to the plants, HORVW 5d ([1]; 60 g of ai/ha, 0.5% Renex 36): 30%
- degree of damage to the plants, HORVW 21d ([1]; 60 g of ai/ha, 0.5% Renex 36): 20%

Compound: CCS(=O)(=O)N(C(=O)CCc1cccc(OC)c1)c1cc(-n2ncc(=O)n(C)c2=O)c(F)cc1C#N [Ex. I-41]
- degree of damage to the plants, HORVW 5d ([1]; 15 g of ai/ha, 0.5% Renex 36): 20%
- degree of damage to the plants, HORVW 5d ([1]; 30 g of ai/ha, 0.5% Renex 36): 25%

Compound: CCS(=O)(=O)N(C(=O)CCc1ccc(F)c(F)c1)c1cc(-n2ncc(=O)n(C)c2=O)c(F)cc1C#N [Ex. I-42]
- degree of damage to the plants, HORVW 5d ([1]; 15 g of ai/ha, 0.5% Renex 36): 15%
- degree of damage to the plants, HORVW 5d ([1]; 30 g of ai/ha, 0.5% Renex 36): 20%
- degree of damage to the plants, HORVW 5d ([1]; 60 g of ai/ha, 0.5% Renex 36): 30%
- degree of damage to the plants, HORVW 21d ([1]; 60 g of ai/ha, 0.5% Renex 36): 20%

Compound: CCS(=O)(=O)N(C(=O)CCc1ccc(F)cc1F)c1cc(-n2ncc(=O)n(C)c2=O)c(F)cc1C#N [Ex. I-43]
- degree of damage to the plants, TRZAW 5d ([2]; 15 g of ai/ha, 0.5% Renex 36): 15%
- degree of damage to the plants, TRZAW 5d ([2]; 30 g of ai/ha, 0.5% Renex 36): 15%
- degree of damage to the plants, HORVW 21d ([1]; 15 g of ai/ha, without addition of Renex 36): 10%

Compound: CCCCCC(C)OC(=O)COc1ccc(Cl)c2cccnc12 (stereo not shown) [cloquintocet-mexyl, 1-methylhexyl 5-chloroquinolin-8-oxyacetate, reference compound]
- degree of damage to the plants, TRZAW 5d ([2]; 50 g of ai/ha, 0.5% Renex 36): 0%
- degree of damage to the plants, TRZAW 5d [2, 3]: 0%
- degree of damage to the plants, TRZAW 21d ([2]; 50 g of ai/ha, 0.5% Renex 36): 0%
- degree of damage to the plants, HORVW 5d ([1]; 50 g of ai/ha, 0.5% Renex 36): 0%
- degree of damage to the plants, HORVW 5d [1, 3]: 0%
- degree of damage to the plants, HORVW 21d ([1]; 50 g of ai/ha, 0.5% Renex 36): 0%
- degree of damage to the plants, HORVW 21d [1, 3]: 0%

Compound: CCOC(=O)C1=NOC(c2ccccc2)(c2ccccc2)C1 [isoxadifen, ethyl 4,5-dihydro-5,5-diphenyl-3-isoxazolecarboxylate, reference compound]
- degree of damage to the plants, TRZAW 5d ([2]; 50 g of ai/ha, 0.5% Renex 36): 0%
- degree of damage to the plants, TRZAW 5d [2, 3]: 0%
- degree of damage to the plants, TRZAW 21d ([2]; 50 g of ai/ha, 0.5% Renex 36): 0%
- degree of damage to the plants, HORVW 5d ([1]; 50 g of ai/ha, 0.5% Renex 36): 0%
- degree of damage to the plants, HORVW 5d [1, 3]: 0%
- degree of damage to the plants, HORVW 21d ([1]; 50 g of ai/ha, 0.5% Renex 36): 0%
- degree of damage to the plants, HORVW 21d [1, 3]: 0%

Compound: CCOC(=O)C1=NN(c2ccc(Cl)cc2Cl)C(C)(C(=O)OCC)C1 (stereo not shown) [mefenpyr-diethyl, diethyl 1-(2,4-dichlorophenyl)-4,5-dihydro-5-methyl-1H-pyrazole-3,5-dicarboxylate, reference compound]
- degree of damage to the plants, TRZAW 5d ([2]; 50 g of ai/ha, 0.5% Renex 36): 0%
- degree of damage to the plants, TRZAW 21d ([2]; 50 g of ai/ha, 0.5% Renex 36): 0%
- degree of damage to the plants, HORVW 5d ([1]; 50 g of ai/ha, 0.5% Renex 36): 0%
- degree of damage to the plants, HORVW 21d ([1]; 50 g of ai/ha, 0.5% Renex 36): 0%
